Test results taken from patent publication US7270949B2, “Fluorescence based T-type channel assay” (Neuromed Pharmaceuticals Ltd., priority 2003, dated 2007).

Columns and labels:
[1] = tested on: α1 subunit of T-type calcium channels; assay: Fluorescence based assay for T-type modulators (FLUO-4, gramicidin/NMDG, KCl pulse); type: cell-based; settings: transfected HEK 293 cells; various concentrations; FIG. 5; positive control
Protocol: Mammalian cell lines stably expressing α1 subunit of T-type calcium channels were constructed by transfecting α1 calcium channel subunit DNA into HEK 293 cells and selecting for antibiotic resistance. Briefly, a full-length T-type calcium channel α1 subunit was subcloned into an expression vector with a selectable marker, pcDNA3 (InvitroGen, San Diego, Calif.). The vector was transfected into HEK 293 cells by lipofection and the cells incubated for 16-20 hours. The cells were fed nonselective medium and incubated for an additional 24 hours, then trypsinized and plated at low density in selective medium supplemented with Geneticin (G418) at a concentration of between 600 to 800 μg/ml. […] After growing up each isolated colony to confluency to establish cell lines, the expression of T-type calcium channels was determined by Northern and Southern blotting. […]
Each well was then treated with fluorescence dye solution containing a mixture of 50 μg FLUO-4 AM (Molecular Probes, F-14201); 45.5 μl DMSO; 45.5 μl 20% Pluronic F-127 (Molecular Probes, P-6867) and 4 ml MKH buffer. […]
To each well, EB buffer was added also containing DMSO at a concentration equal to that of the test compounds for negative controls, the known blocker penfluoridol at 2.5 μM for positive control, and test compounds (diluted in DMSO) for experimental wells. […] Background fluorescence was read in all wells. […]

[2] = tested on: membrane potential of cells; assay: Membrane potential of cells with gramicidin, NMDG substituted for external sodium (FIG. 3); type: cell-based; settings: 5 μg/ml gramicidin, absence of external sodium (NMDG)
Protocol: As shown, when 5 μg/ml gramicidin is added in the absence of external sodium, the membrane potential decreases to about −70 mV.

OC1(c2ccc(Cl)c(C(F)(F)F)c2)CCN(CCCC(c2ccc(F)cc2)c2ccc(F)cc2)CC1 [penfluoridol]
blocking calcium ion transport (fluorescence) [1]: successful in blocking calcium ion transport

gramicidin
membrane potential [2]: about −70 mV
